In PubChem BioAssay (NCI):
Where “and” joins values, the source holds several entries; their conditions need not be identical. Identical values can stand only once.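 Exposure lasted 48 hours, with cells grown in 96-well plates and compounds tested at five concentrations. Abbreviation: GI50, concentration required for 50% inhibition of growth. TGI: total growth inhibition.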 Where a SMILES comes first, the peptide text is derived from it. The star is where a group is joined. Boc = CC(C)(C)OC(=O)*

Key:
Test in all cases: NCI tumour cell line growth inhibition, 48 h
A498 renal = tested on: A498 renal
IGROV1 ovarian = tested on: IGROV1 ovarian
MALME-3M melanoma = tested on: MALME-3M melanoma
NCI-H522 lung = tested on: NCI-H522 lung
OVCAR-3 ovarian = tested on: OVCAR-3 ovarian
OVCAR-4 ovarian = tested on: OVCAR-4 ovarian
OVCAR-5 ovarian = tested on: OVCAR-5 ovarian
SK-OV-3 ovarian = tested on: SK-OV-3 ovarian
UACC-62 melanoma = tested on: UACC-62 melanoma
SF-539 CNS = tested on: SF-539 CNS

| SMILES | TGI (A498 renal) | TGI (IGROV1 ovarian) | TGI (MALME-3M melanoma) | TGI (NCI-H522 lung) | TGI (OVCAR-3 ovarian) | TGI (OVCAR-4 ovarian) | TGI (OVCAR-5 ovarian) | TGI (SK-OV-3 ovarian) | TGI (UACC-62 melanoma) | TGI (SF-539 CNS) | GI50 (MALME-3M melanoma) | GI50 (NCI-H522 lung) | GI50 (OVCAR-3 ovarian) | GI50 (OVCAR-4 ovarian) | GI50 (OVCAR-5 ovarian) | GI50 (SF-539 CNS) | GI50 (UACC-62 melanoma) | GI50 (A498 renal) | GI50 (IGROV1 ovarian) | GI50 (SK-OV-3 ovarian) |
| --- | --- | --- | --- | --- | --- | --- | --- | --- | --- | --- | --- | --- | --- | --- | --- | --- | --- | --- | --- | --- |
| O=S(=O)(O)c1ccc2c(N=Nc3ccccc3Cl)c(O)ccc2c1 | > 100 µM | > 100 µM | > 100 µM | > 100 µM | > 100 µM | > 100 µM | > 100 µM | > 100 µM | > 100 µM |  |  |  |  |  |  |  |  |  |  |  |
| Cc1ccc(O)c(-c2csc(NCN3CCN(CNc4nc(-c5cc(C)ccc5O)cs4)CC3)n2)c1 | > 100 µM | > 100 µM | > 100 µM | > 100 µM | > 100 µM | > 100 µM | > 100 µM | > 100 µM | > 100 µM | > 100 µM |  |  |  |  |  |  |  |  |  |  |
| NC12CC3CC4C1CC1CC2C(C3)C4(N)C1 | > 100 µM | > 100 µM | > 100 µM | > 100 µM | > 100 µM | > 100 µM | > 100 µM | > 100 µM | > 100 µM |  |  |  |  |  |  |  |  |  |  |  |
| COC(=O)c1ccc(CCc2cc(O)c(Br)cc2O)cc1 | 40.7 µM | 28.5 µM | 32.4 µM | 12.3 µM | 19.8 µM | 23.2 µM | 33.8 µM | > 62.5 µM | 27.1 µM | 20.7 µM |  |  |  |  |  |  |  |  |  |  |
| O=C1C=C(N2CC2)C(=O)C=C1N1CC1 | 0.158 µM | 2.48 µM | 0.234 µM and 0.238 µM | 0.0727 µM and 0.144 µM | 0.967 µM and 0.277 µM | 0.983 µM and 0.613 µM | 0.366 µM and 2.2 µM | 2.19 µM |  | 0.267 µM and 0.268 µM | 0.0498 µM | 0.00826 µM | 0.153 µM | 0.185 µM | 0.0784 µM | 0.0221 µM | 0.01 µM |  |  |  |
| CC(C)(C)OC(=O)NC(Cc1ccc(OCc2ccccc2)cn1)C(=O)N1CCSCC1 (centres undefined) | > 100 µM | > 100 µM | > 100 µM | > 100 µM | > 100 µM |  | > 100 µM | > 100 µM | > 100 µM | > 100 µM |  |  |  |  |  |  |  |  |  |  |
| Cc1ccc(S(=O)(=O)/N=C(\[O-])C2=C(c3ccccc3)NN(C)c3nc4cccc[n+]4nc32)cc1 | > 100 µM | > 100 µM | > 100 µM | > 100 µM |  | > 100 µM | > 100 µM |  | > 100 µM | > 100 µM |  |  |  |  |  |  |  |  |  |  |
| COc1cccc2c1C(=O)c1c(O)c3c(c(O)c1C2=O)C[C@@](O)(/C(C)=N/NC(=O)c1ccccc1)C[C@@H]3OC1CC(N)C(O)C(C)O1 (some centres undefined) | 3.42 µM | 6.35 µM | 1.3 µM | 1.1 µM | 4.55 µM | 7.74 µM | 4.73 µM | 4.56 µM | 1.19 µM | 1.58 µM |  |  |  |  |  |  |  |  |  |  |
| O=C(/C=C\Nc1ccccc1O)C(Cl)(Cl)Cl | > 100 µM | > 100 µM | > 100 µM | 65 µM | 43.1 µM | > 100 µM | > 100 µM | > 100 µM | > 100 µM | > 100 µM |  |  |  |  |  |  |  |  |  |  |
| COC1(OC)C2(Cl)C(Cl)=C(Cl)C1(Cl)C1COCC12 (centres undefined) | > 100 µM | > 100 µM | > 100 µM | > 100 µM | > 100 µM | > 100 µM | > 100 µM | > 100 µM | > 100 µM | > 100 µM |  |  |  |  |  |  |  |  |  |  |
| NC(Cc1c[nH]c2ccccc12)C(=O)O (centres undefined) | > 13.9 µM | > 300 µM | > 300 µM | > 300 µM | > 300 µM | > 300 µM | > 300 µM | > 300 µM | > 300 µM | > 300 µM |  |  |  |  |  |  |  |  |  |  |
| COc1ccc(Cl)cc1NC(=O)c1c(NC(=O)C(F)(F)C(F)(F)F)sc2c1CCCCC2 | 2.06 µM | > 100 µM | 5.63 µM | 7.68 µM |  | 5.64 µM | > 100 µM | 6.89 µM | 3.86 µM |  | 1.58 µM | 0.588 µM |  | 1.57 µM | 2.61 µM |  | 0.397 µM | 0.312 µM | 2.81 µM | 2.18 µM |
| CC(=O)N1N=C(N)CC1=O | > 100 µM | > 100 µM | > 100 µM | > 100 µM | > 100 µM | > 100 µM | > 100 µM | > 100 µM | > 100 µM | > 100 µM |  |  |  |  |  |  |  |  |  |  |
| CCOCC(NC(=O)C(CC(C)C)NC(=O)OC(C)(C)C)C(N)=O (stereo not drawn) (Boc-Leu-Ser(Et)-NH2; configuration not given here) | > 100 µM | > 100 µM | > 100 µM | > 100 µM | > 100 µM | > 100 µM | > 100 µM | > 100 µM | > 100 µM | > 100 µM |  |  |  |  |  |  |  |  |  |  |
| O=C(N/N=C\c1ccc([N+](=O)[O-])cc1)Nc1cccc2ccccc12 | 40.9 µM | > 100 µM | > 82.5 µM | > 100 µM | > 100 µM | > 100 µM | > 100 µM | 39 µM | > 49.8 µM | 33 µM |  |  |  |  |  |  |  |  |  |  |
| Nn1c(SCC(=O)NCc2ccccc2)nc2ccccc2c1=O | > 100 µM | > 100 µM | > 100 µM | > 100 µM | > 100 µM | > 100 µM | > 100 µM |  | > 100 µM | > 100 µM |  |  |  |  |  |  |  |  |  |  |
| CC(NC(=O)C(N)CC(=O)O)NC(=O)N1CCOCC1 (centres undefined) | > 100 µM | > 100 µM | > 100 µM | > 100 µM | > 100 µM | > 100 µM | > 100 µM | > 100 µM | > 100 µM | > 100 µM |  |  |  |  |  |  |  |  |  |  |
| Cc1ccc(Nc2nc(=O)[nH]c(=O)[nH]2)cc1N=[N+]=[N-] | > 100 µM | > 100 µM | > 100 µM | > 100 µM | > 100 µM | > 100 µM | > 100 µM | > 100 µM | > 100 µM | > 100 µM |  |  |  |  |  |  |  |  |  |  |
| CC12CC3(O)OC(O1)C1(COC(=O)c4ccccc4)C3CC21OC1OC(CO)C(O)C(O)C1O (centres undefined) | > 100 µM | > 100 µM | > 100 µM | > 100 µM | > 100 µM | > 100 µM | > 100 µM | > 100 µM | > 100 µM | > 100 µM |  |  |  |  |  |  |  |  |  |  |
| Cn1c2ccccc2n2c(=O)c3cccnc3c(C#N)c12 | > 100 µM |  | > 100 µM | > 100 µM | > 100 µM | > 100 µM | > 100 µM | > 100 µM |  | > 100 µM |  |  |  |  |  |  |  |  |  |  |
